Consider two compounds from paper PMC10979003, “Development and crystal structures of a potent second-generation dual degrader of BCL-2 and BCL-xL” (Nature Communications, 2024).

Molecules are shown by their SMILES.

Assay [1] concerns the target T1, BCL-2 R110A E114K (Homo sapiens, UniProt P10415, E114K/R110A).
T1 construct: BCL-xL (aa 2-212) and BCL-2 (aa 1-207) transformed cells were grown in LB broth; made in house; host or cells: E. coli BL21 (DE3) codon plus
Description: AlphaScreen binary binding, BCL-2 R110A E114K. The note with it: mean ± s.d., n=3. How it is done: (§1) To test the binary/ternary binding affinities of compounds to BCL-2/BCL-xL, AlphaScreen displacement binding assay was performed to test the capabilities of testing compounds to displace a Biotin-tagged Bim (Biotin-[…]) or Bad (Biotin-[…]) from BCL-2 or BCL-xL for BCL-2 and BCL-xL binding affinities, respectively. All reagents were diluted in assay buffer of 25 mM HEPES, pH 7.5, 150 mM NaCl, 0.1% BSA, and 0.005% tween 20 prior incubation. To a 96-well PCR plate (VWR, Cat. No. 82006-636) was added 10 μL Biotin-tagged Bim (15 nM for WT or 50 nM for mutants) or Bad (15 nM for WT or 50 nM for mutants), 10 μL series diluted compounds solution (2 or 3 or 4× dilution), and 10 μL self-made 6×His tagged BCL-2 WT or mutants (25 nM WT or 50 nM mutants) or 10 μL self-made BCL-xL WT and mutants (10 nM WT or 50 nM mutants). […] The luminescence signal was detected on a Biotek’s Synergy Neo2 multimode plate reader installed with an AphaScreen filter cube. The Ki values of each compounds were calculated by fitting data into the “Binding-competitive, One site-Fit Ki” function in GraphPad Prism (9.2.0) based on concentrations of Biotin–peptide used and experimentally determined Kd values of each 6×His protein &&&and Biotin–Peptide pair.

Assay [2] deals with T2, BCL-2 E114A (Homo sapiens, UniProt P10415, E114A).
T2 construct: BCL-xL (aa 2-212) and BCL-2 (aa 1-207) transformed cells were grown in LB broth; made in house; host or cells: E. coli BL21 (DE3) codon plus
T2 sequence (P10415 1-207 E114A): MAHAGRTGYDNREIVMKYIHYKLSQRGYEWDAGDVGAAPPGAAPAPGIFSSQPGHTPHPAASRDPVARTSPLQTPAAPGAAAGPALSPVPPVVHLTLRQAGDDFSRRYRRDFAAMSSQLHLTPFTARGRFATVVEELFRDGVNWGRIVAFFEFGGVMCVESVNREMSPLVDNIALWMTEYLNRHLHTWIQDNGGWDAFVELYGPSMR
Kind of assay: AlphaScreen binary binding, BCL-2 E114A. How it is done:
as §1

Assay [3] relates to H146 small cell lung cancer cells. Kind of assay: Cytotoxicity in H146 SCLC cells in vitro. Type of assay: cell-based. The settings on record: Figure R4.
The target of assay [4] is T3, VCB/PROTAC/BCL-xL ternary complex (Homo sapiens, UniProt P40337+Q07817).
T3 construct: BCL-xL (aa 2-212) and BCL-2 (aa 1-207) transformed cells were grown in LB broth; SMT3 (N); GST (on the VCB complex); made in house; host or cells: E. coli BL21 (DE3) codon plus (stated for the BCL-xL construct)
T3 sequence (Q15369 17-112): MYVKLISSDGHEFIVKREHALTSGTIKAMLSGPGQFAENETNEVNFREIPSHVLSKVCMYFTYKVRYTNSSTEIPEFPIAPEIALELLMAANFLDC
T3 sequence (Q07817 2-212): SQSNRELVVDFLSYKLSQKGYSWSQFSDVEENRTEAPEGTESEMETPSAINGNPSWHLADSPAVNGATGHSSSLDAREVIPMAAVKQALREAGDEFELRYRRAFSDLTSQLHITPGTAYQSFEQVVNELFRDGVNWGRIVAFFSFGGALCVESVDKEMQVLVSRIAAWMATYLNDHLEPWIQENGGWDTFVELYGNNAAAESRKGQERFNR
T3 sequence (Q15370 whole entry, further chain, the tested form may be a part): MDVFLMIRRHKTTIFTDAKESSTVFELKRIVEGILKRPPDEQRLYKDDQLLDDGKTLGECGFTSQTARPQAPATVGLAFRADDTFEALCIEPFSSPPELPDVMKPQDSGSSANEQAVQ
T3 sequence (P40337 54-213): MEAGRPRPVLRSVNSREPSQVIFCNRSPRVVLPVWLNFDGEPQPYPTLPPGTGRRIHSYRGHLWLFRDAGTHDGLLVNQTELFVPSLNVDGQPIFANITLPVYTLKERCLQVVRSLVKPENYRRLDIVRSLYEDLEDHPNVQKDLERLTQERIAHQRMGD
Kind of assay: AlphaLISA ternary complex assay VCB/PROTAC/BCL-xL. In kind it is binding. The settings on record: cell-free AlphaLISA. How it is done: Assays were performed at room temperature. All reagents were diluted in assay buffer of 25 mM HEPES, pH 7.5, 150 mM NaCl, 0.1% BSA, and 0.005% tween 20. To a 96-well PCR plate (VWR, Cat. No. 82006-636) were added 10 μL self-made 6×His tagged BCL-xL (100 nM) or BCL-2 (150 nM), 10 μL series diluted compounds solution (4× dilution) and 10 μL of self-made GST-VCB (100 nM). After incubating at room temperature for 15 min, 5 µL of alpha glutathione-donor beads (160 μg/mL, PerkinElmer, Cat. No. 6765300) and 5 µL of anti-6×His acceptor beads (160 μg/mL, PerkinElmer, Cat. No. AL128M) to each well and incubated for additional 45 min in the dark before being transferred to two adjacent wells (17 µL each) of 384-well white OptiPlate (PerkinElmer, Cat. No. 6008280). The luminescence signal was detected on a Biotek’s Synergy Neo2 multimode plate reader installed with an AphaScreen filter cube. Intensity values were plotted in Graphpad Prism (9.2.0) with PROTAC concentration values represented on a log10 scale.

In assay [5] the target is T4, BCL-2 R110A (Homo sapiens, UniProt P10415, R110A).
T4 construct: BCL-xL (aa 2-212) and BCL-2 (aa 1-207) transformed cells were grown in LB broth; made in house; host or cells: E. coli BL21 (DE3) codon plus
T4 sequence (P10415 1-207 R110A): as the sequence (P10415 1-207 E114A) above, with R110A, A114E counted along it
Kind of assay: AlphaScreen binary binding, BCL-2 R110A. The note with it: mean ± s.d., n=3. How it is done:
as §1

Assay [6] concerns human platelets. Kind of assay: Potency against human platelets in vitro. In kind it is cell-based.
For assay [7], the target named is T5, BCL-2 E114A (Homo sapiens, UniProt P10415+P40337, E114A).
T5 construct: BCL-xL (aa 2-212) and BCL-2 (aa 1-207) transformed cells were grown in LB broth; VHL (aa 54-213) and ElonginBC were co-transformed (VCB); 6xHis (TEV-cleavable) (N, cleaved yes); made in house; host or cells: E. coli BL21 (DE3) codon plus (BCL-2, VCB); Trichoplusia ni High-Five insect cells (Cullin2-Rbx1)
Description: Polyubiquitin chain formation assay, BCL-2 E114A. Type of assay: biochemical. The settings on record: 10 μM WH244, 1 h, Fig. 5d. How it is done: WT BCL-xL/BCL-2 (5 μM) were ubiquitinated in the presence of E1 SpUba1 (0.1 μM), E2, UbcH5c (1 μM) and Cdc34 (1 μM), ubiquitin (75 μM), VHL-Elongin C-Elongin B complex (0.35 μM), neddylated Cullin2-Rbx1 complex (0.35 μM) and 753b or WH244 (10 μM) at 37 °C in a buffer of 50 mM HEPES, pH 7.5, 10 mM MgCl2, 100 mM NaCl, 2 mM ATP, and 0.5 mM DTT. The reaction mixture was incubated for indicated time points (Supplementary Fig. 4a, b, d, e, g, h) and was terminated by the addition of 1× reducing SDS-PAGE loading buffer. The polyUb chain formation was assessed using immunoblotting as described earlier. For polyUb chain formation on mutant proteins used in this study, the above protocol was used with a fixed time-point of 1 h.

The target of assay [8] is T6, BCL-xL D107A (Homo sapiens, UniProt Q07817, D107A).
T6 construct: BCL-xL (aa 2-212) and BCL-2 (aa 1-207) transformed cells were grown in LB broth; SMT3 (N); made in house; host or cells: E. coli BL21 (DE3) codon plus
T6 sequence (Q07817 2-212 D107A): as the sequence (Q07817 2-212) above, with D106A counted along it
Kind of assay: AlphaScreen binary binding, BCL-xL D107A. The settings on record: mean ± s.d., n=3. How it is done:
as §1

The target of assay [9] is T7, BCL-xL R103A/D107A/S110A/Q111A (Homo sapiens, UniProt Q07817, D107A/Q111A/R103A/S110A).
T7 construct: BCL-xL (aa 2-212) and BCL-2 (aa 1-207) transformed cells were grown in LB broth; SMT3 (N); made in house; host or cells: E. coli BL21 (DE3) codon plus
T7 sequence (Q07817 2-212 R103A/D107A/S110A/Q111A): as the sequence (Q07817 2-212) above, with R102A, D106A, S109A, Q110A counted along it
Description: AlphaScreen binary binding, BCL-xL R103A/D107A/S110A/Q111A. The note with it: mean ± s.d., n=3; read-out: Ki (nM, n=3), BCL-xL R103A/D107A/S110A/Q111AA. How it is done: as §1

The target of assay [10] is T8, BCL-xL R103A/D107A/S110A (Homo sapiens, UniProt Q07817, D107A/R103A/S110A).
T8 construct: BCL-xL (aa 2-212) and BCL-2 (aa 1-207) transformed cells were grown in LB broth; SMT3 (N); made in house; host or cells: E. coli BL21 (DE3) codon plus
T8 sequence (Q07817 2-212 R103A/D107A/S110A): as the sequence (Q07817 2-212) above, with R102A, D106A, S109A counted along it
Kind of assay: AlphaScreen binary binding, BCL-xL R103A/D107A/S110A. The note with it: mean ± s.d., n=3. How it is done:
as §1

T1 sequence (P10415 1-207 R110A/E114K): as the sequence (P10415 1-207 E114A) above, with R110A, A114K counted along it

Take `Cc1ncsc1-c1ccc([C@H](C)NC(=O)[C@@H]2C[C@@H](O)CN2C(=O)[C@@H](NC(=O)CN2CCN(CC(=O)N3CCN(C[C@]4(C)CCC(c5ccc(Cl)cc5)=C(CN5CCN(c6ccc(C(=O)NS(=O)(=O)c7ccc(N[C@H](CCN8C[C@@H]9C[C@H]8CO9)CSc8ccccc8)c(S(=O)(=O)C(F)(F)F)c7)cc6)CC5)C4)CC3)CC2)C(C)(C)C)cc1` [WH244]: the Ki in assay [1] was 7 ± 0.9 nM; in assay [2] (mean ± s.d., n=3) it was 7.4 ± 1.5 nM; in assay [5] it was 8 ± 1.2 nM. For the same compound, the “Increase in Ki for the binary interaction, mutant E114A versus WT BCL-2” value in assay [2] is “more than two-fold”. Besides, in assay [3], the “Potency against H146 cells (comparison with ABT263, DT2216, 753b)” value is “most potent”. For the same compound, the “Ternary complex formation with BCL-xL (comparison with 753b)” value in assay [4] was “tighter complex”. In addition, in [6], the “Increase in therapeutic index compared to ABT263” value was “more than 100 fold”. Besides, the “PolyUb chain formation retained by E114A, share of the WT activity” value in assay [7] is reported as 10-12%.
Take `Cc1ncsc1-c1ccc(C(C)NC(=O)C2CC(O)CN2C(=O)C(NC(=O)CCCCCCC(=O)N2CCN(CC3(C)CCC(c4ccc(Cl)cc4)=C(CN4CCN(c5ccc(C(=O)NS(=O)(=O)c6ccc(NC(CCN7CCOCC7)CSc7ccccc7)c(S(=O)(=O)C(F)(F)F)c6)cc5)CC4)C3)CC2)C(C)(C)C)cc1` (centres unmarked) [753b]: the Ki in assay [8] is 30.3 ± 4.5 nM; in [9], 23 ± 4 nM; in assay [10] it was 18.4 ± 2.3 nM.
